Measurements reported in patent US20250034173A1, “PYRIDO[4,3-D]PYRIMIDINE COMPOUNDS” (PFIZER INC., priority 2023, published 2025).
pIC50, pKd: −log10 of the molar value.

Assays:
KRAS G12V [1] = target: T1, KRAS G12V (Homo sapiens (Human), UniProt P01116, G12V); test: SPR binding affinity and kinetics, GTPγS-loaded KRAS G12V; settings: GTPγS loaded protein, geomean
Outline: (§1)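 Binding was measured by SPR. Dissociation was then monitored for no less than 3600 seconds. No additional regeneration step followed. Finally, the fit was checked by c2 and residue distribution randomness.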

[2] = tested on: PANC08.13 (pancreatic cancer cell line); test: KRAS Cell Titer Glo (CTG) cell proliferation assay, PANC08.13; type: cell-based; settings: Homo sapiens, PANC-08-13, 168 h; PANC08.13 cells, 7-day CTG, geomean IC50
Outline: (§2)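 Compounds pre-dispensed in 0.1% DMSO before seeding H358 (300 cells/well), SW620 (750) or PANC08.13 (600); 7-day exposure at 37 °C, 5% CO2. Viability by CellTiter-Glo luminescence after 15 min at room temperature. Percent effect normalised to DMSO (0%) and 1 uM trametinib (100%); geomean IC50.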

KRAS G12V [3] = target: T1, KRAS G12V; test: SPR binding affinity and kinetics, GDP-loaded KRAS G12V; settings: GDP loaded protein, geomean
From the text: (§3) No additional regeneration was used.
(§4) Compound dissociation was monitored for at least 3600 seconds. […] No additional regeneration was used.
(§5) The adequateness of the fit was judged by c2 values and the randomness of residue distribution.

KRAS Wild Type [4] = target: T2, KRAS Wild Type (Homo sapiens (Human), UniProt P01116); test: SPR binding affinity and kinetics, GDP-loaded KRAS Wild Type; settings: GDP loaded protein, geomean
From the text: as §3, §4, §5

KRAS G12D [5] = target: T3, KRAS G12D (Homo sapiens (Human), UniProt P01116, G12D); test: SPR binding affinity and kinetics, GTPγS-loaded KRAS G12D; settings: GTPγS loaded protein, geomean
Outline: as §1

KRAS G12C [6] = target: T4, KRAS G12C (Homo sapiens (Human), UniProt P01116, G12C); test: SPR binding affinity and kinetics, GDP-loaded KRAS G12C; settings: GDP loaded protein, geomean
From the text: as §3, §4, §5

[7] = tested on: H358 (non-small cell lung cancer cell line); test: KRAS Cell Titer Glo (CTG) cell proliferation assay, H358; type: cell-based; settings: Homo sapiens, NCI-H358, 168 h; H358 cells, 7-day CTG, geomean IC50
Outline: as §2

KRAS G12C [8] = target: T4, KRAS G12C; test: SPR binding affinity and kinetics, GTPγS-loaded KRAS G12C; settings: GTPγS loaded protein, geomean
Outline: as §1

KRAS Wild Type [9] = target: T2, KRAS Wild Type; test: SPR binding affinity and kinetics, GTPγS-loaded KRAS Wild Type; settings: GTPγS loaded protein, geomean
Outline: as §1

KRAS G12D [10] = target: T3, KRAS G12D; test: SPR binding affinity and kinetics, GDP-loaded KRAS G12D; settings: GDP loaded protein, geomean
From the text: as §3, §4, §5

[11] = tested on: SW620 (colorectal cancer cell line); test: KRAS Cell Titer Glo (CTG) cell proliferation assay, SW620; type: cell-based; settings: Homo sapiens, SW-620, 168 h; SW620 cells, 7-day CTG, geomean IC50
Outline: as §2

NRAS Wild Type = NRAS Wild Type (Homo sapiens (Human), UniProt P01111); test: SPR binding affinity and kinetics, GTPγS-loaded NRAS Wild Type; settings: GTPγS loaded protein, geomean
From the text: as §3, §4, §5

HRAS Wild Type = HRAS Wild Type (Homo sapiens (Human), UniProt P01112); test: SPR binding affinity and kinetics, GTPγS-loaded HRAS Wild Type; settings: GTPγS loaded protein, geomean
From the text: as §3, §4, §5

T2 sequence (P01116 other isoform, or with tags, fused parts or gaps): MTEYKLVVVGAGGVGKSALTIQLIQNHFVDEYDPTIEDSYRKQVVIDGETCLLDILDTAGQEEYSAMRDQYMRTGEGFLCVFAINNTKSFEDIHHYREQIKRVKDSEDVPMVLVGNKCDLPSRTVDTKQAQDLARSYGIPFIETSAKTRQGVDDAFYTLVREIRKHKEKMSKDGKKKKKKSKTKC
T3 sequence (P01116 other isoform, or with tags, fused parts or gaps G12D): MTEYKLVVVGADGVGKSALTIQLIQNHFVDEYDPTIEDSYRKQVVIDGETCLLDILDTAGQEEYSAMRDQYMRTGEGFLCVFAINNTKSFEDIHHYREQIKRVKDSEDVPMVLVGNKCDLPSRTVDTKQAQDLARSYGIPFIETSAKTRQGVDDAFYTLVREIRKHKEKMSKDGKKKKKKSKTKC
Sequence of NRAS Wild Type (P01111 2-185): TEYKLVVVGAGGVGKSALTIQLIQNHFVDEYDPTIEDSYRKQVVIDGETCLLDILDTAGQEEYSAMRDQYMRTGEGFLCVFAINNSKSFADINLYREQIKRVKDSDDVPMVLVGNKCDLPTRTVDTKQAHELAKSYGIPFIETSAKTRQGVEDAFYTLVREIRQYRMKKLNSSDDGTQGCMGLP
T1 sequence (P01116 other isoform, or with tags, fused parts or gaps G12V): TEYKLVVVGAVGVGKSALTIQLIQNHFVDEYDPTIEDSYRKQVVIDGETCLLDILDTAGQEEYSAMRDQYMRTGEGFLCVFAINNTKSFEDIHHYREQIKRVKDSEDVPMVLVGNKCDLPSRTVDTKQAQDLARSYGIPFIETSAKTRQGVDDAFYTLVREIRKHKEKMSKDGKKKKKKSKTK
T4 sequence (P01116 other isoform, or with tags, fused parts or gaps G12C): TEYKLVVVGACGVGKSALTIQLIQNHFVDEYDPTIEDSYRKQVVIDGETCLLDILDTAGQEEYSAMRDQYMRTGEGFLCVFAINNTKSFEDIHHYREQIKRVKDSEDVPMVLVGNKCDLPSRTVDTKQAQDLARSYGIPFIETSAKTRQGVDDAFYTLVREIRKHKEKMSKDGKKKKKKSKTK
Sequence of HRAS Wild Type (P01112 2-184): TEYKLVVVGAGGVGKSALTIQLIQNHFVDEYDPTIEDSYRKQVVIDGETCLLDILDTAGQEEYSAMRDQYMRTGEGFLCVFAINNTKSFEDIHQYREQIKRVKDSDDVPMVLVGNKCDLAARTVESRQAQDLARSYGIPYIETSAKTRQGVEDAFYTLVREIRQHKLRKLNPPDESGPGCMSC

With `Fc1c(-c2cccc3[nH]ncc23)nc2c3c(nc(OC[C@@]45CCCN4C[C@H](F)C5)nc13)N1CCCOC[C@H]1CO2` [Example 3, (8aS)-4-fluoro-2-{[(2R,7aS)-2-fluorotetrahydro-1H-pyrrolizin-7a(5H)-yl]methoxy}-5-(1H-indazol-4-yl)-8a,9,12,13-tetrahydro-8H,11H-7,10-dioxa-1,3,6,13a-tetraazanaphtho[1,8-ab]heptalene] the pKd (KRAS G12V [1]) was under 6.00, the pIC50 [2] was under 5.00 and the pKd (KRAS G12V [3]) was under 5.00. It also gave a pKd (KRAS Wild Type [4]) of under 5.00, a pKd (KRAS G12D [5]) of under 6.00 and a pKd (KRAS G12C [6]) of under 5.00. The pIC50 [7] was under 5.00, the pKd (KRAS G12C [8]) was under 6.00 and the pKd (KRAS Wild Type [9]) was under 6.00. For the same compound, the pKd (KRAS G12D [10]) was under 5.00 and the pIC50 [11] was under 5.00.
`C=C1CN2CCC[C@@]2(COc2nc3c4c(nc(-c5c(Cl)c(Cl)cc6[nH]ncc56)c(F)c4n2)OC[C@@H]2COCCCN32)C1` [Example 11, (8aS)-5-(5,6-dichloro-1H-indazol-4-yl)-4-fluoro-2-{[(7aS)-2-methylidenetetrahydro-1H-pyrrolizin-7a(5H)-yl]methoxy}-8a,9,12,13-tetrahydro-8H,11H-7,10-dioxa-1,3,6,13a-tetraazanaphtho[1,8-ab]heptalene] was tested, and the pKd (KRAS G12V [1]) was 7.54, the pIC50 [2] was 7.68 and the pKd (KRAS G12V [3]) was 10.17. For the same compound, the pKd (KRAS Wild Type [4]) was 10.04, the pKd (KRAS G12D [5]) was 7.72 and the pKd (KRAS G12C [6]) was 10.29. For the same compound, the pIC50 [7] was 6.87, the pKd (KRAS G12C [8]) was 7.41 and the pKd (KRAS Wild Type [9]) was 7.40. The pKd (KRAS G12D [10]) was 10.62 and the pIC50 [11] was 6.50.
`C=C1CN2CCC[C@@]2(COc2nc3c4c(nc(-c5c(Cl)ccc6[nH]ncc56)c(F)c4n2)OC[C@@H]2COCCCN32)C1` [Example 6, (8aS)-5-(5-chloro-1H-indazol-4-yl)-4-fluoro-2-{[(7aS)-2-methylidenetetrahydro-1H-pyrrolizin-7a(5H)-yl]methoxy}-8a,9,12,13-tetrahydro-8H,11H-7,10-dioxa-1,3,6,13a-tetraazanaphtho[1,8-ab]heptalene] gave a pKd (KRAS G12V [1]) of 6.19, a pIC50 [2] of 6.39 and a pKd (KRAS G12V [3]) of 8.91. It also gave a pKd (KRAS Wild Type [4]) of 8.60, a pKd (KRAS G12D [5]) of 6.33 and a pKd (KRAS G12C [6]) of 9.05. The pIC50 [7] was 6.07, the pKd (KRAS G12C [8]) was 6.20 and the pKd (KRAS Wild Type [9]) was 6.26. For the same compound, the pKd (KRAS G12D [10]) was 9.02 and the pIC50 [11] was 5.88.
`C=C1CN2CCC[C@@]2(COc2nc3c4c(nc(-c5c(C6CC6)c(Cl)cc6[nH]ncc56)c(F)c4n2)OC[C@@H]2CCCCN32)C1` [Example 21, (8aS)-5-(6-chloro-5-cyclopropyl-1H-indazol-4-yl)-4-fluoro-2-{[(7aS)-2-methylidenetetrahydro-1H-pyrrolizin-7a(5H)-yl]methoxy}-8,8a,9,10,11,12-hexahydro-7-oxa-1,3,6,12a-tetraazabenzo[4,5]cyclohepta[1,2,3-de]naphthalene] showed a pKd (KRAS G12V [1]) of 7.82, a pIC50 [2] of 8.10 and a pKd (KRAS G12D [5]) of 7.68. The pIC50 [7] was 6.42, the pKd (NRAS Wild Type) was under 5.00 and the pKd (KRAS G12C [8]) was 7.85. For the same compound, the pKd (KRAS Wild Type [9]) was 7.51, the pKd (HRAS Wild Type) was under 5.00 and the pIC50 [11] was 6.57.
`C=C1CN2CCC[C@@]2(COc2nc3c4c(nc(-c5c(C6(C)CC6)c(Cl)cc6[nH]ncc56)c(F)c4n2)OC[C@@H]2COCCCN32)C1` [Example 39, (8aS)-5-[6-chloro-5-(1-methylcyclopropyl)-1H-indazol-4-yl]-4-fluoro-2-{[(7aS)-2-methylidenetetrahydro-1H-pyrrolizin-7a(5H)-yl]methoxy}-8a,9,12,13-tetrahydro-8H,11H-7,10-dioxa-1,3,6,13a-tetraazanaphtho[1,8-ab]heptalene] showed a pKd (KRAS G12V [1]) of 8.70, a pIC50 [2] of over 9.00 and a pKd (KRAS G12D [5]) of 9.00. The pIC50 [7] was 8.00, the pKd (NRAS Wild Type) was under 5.00 and the pKd (KRAS G12C [8]) was 8.70. For the same compound, the pKd (KRAS Wild Type [9]) was 8.70, the pKd (HRAS Wild Type) was under 5.00 and the pIC50 [11] was 8.15.
Work on `C/C=C1\CN2CCC[C@@]2(COc2nc3c4c(nc(-c5c6c(cc7[nH]ncc57)CCC[C@H]6C)c(F)c4n2)OC[C@@H]2COCCCN32)C1` [Example 53, (8aS)-2-{[(2Z,7aS)-2-ethylidenetetrahydro-1H-pyrrolizin-7a(5H)-yl]methoxy}-4-fluoro-5-[(5R)-5-methyl-5,6,7,8-tetrahydro-1H-benzo[f]indazol-4-yl]-8a,9,12,13-tetrahydro-8H,11H-7,10-dioxa-1,3,6,13a-tetraazanaphtho[1,8-ab]heptalene] yielded a pKd (KRAS G12V [1]) of 8.70, a pIC50 [2] of 8.30 and a pKd (KRAS G12D [5]) of 9.00. For the same compound, the pIC50 [7] was 8.10, the pKd (NRAS Wild Type) was under 5.00 and the pKd (KRAS G12C [8]) was 9.00. It also gave a pKd (KRAS Wild Type [9]) of 9.00, a pKd (HRAS Wild Type) of under 5.00 and a pIC50 [11] of 8.40.
With `F/C=C1\CN2CCC[C@@]2(COc2nc3c4c(nc(-c5c(C6CC6)c(Cl)cc6[nH]ncc56)c(F)c4n2)OC[C@@H]2COCCCN32)C1` [Example 16, (8aS)-5-(6-chloro-5-cyclopropyl-1H-indazol-4-yl)-4-fluoro-2-{[(2Z,7aS)-2-(fluoromethylidene)tetrahydro-1H-pyrrolizin-7a(5H)-yl]methoxy}-8a,9,12,13-tetrahydro-8H,11H-7,10-dioxa-1,3,6,13a-tetraazanaphtho[1,8-ab]heptalene] the pKd (KRAS G12V [1]) was 8.40, the pIC50 [2] was 8.70 and the pKd (KRAS G12D [5]) was 8.52. The pIC50 [7] was 7.66, the pKd (NRAS Wild Type) was under 5.00 and the pKd (KRAS G12C [8]) was 8.40. It also gave a pKd (KRAS Wild Type [9]) of 8.40, a pKd (HRAS Wild Type) of under 5.00 and a pIC50 [11] of 7.64.
`C/C=C1\CN2CCC[C@@]2(COc2nc3c4c(nc(-c5c(C6CC6)c(Cl)cc6[nH]ncc56)c(F)c4n2)OC[C@@H]2COCCCN32)C1` [Example 26, (8aS)-5-(6-chloro-5-cyclopropyl-1H-indazol-4-yl)-2-{[(2Z,7aS)-2-ethylidenetetrahydro-1H-pyrrolizin-7a(5H)-yl]methoxy}-4-fluoro-8a,9,12,13-tetrahydro-8H,11H-7,10-dioxa-1,3,6,13a-tetraazanaphtho[1,8-ab]heptalene] showed a pKd (KRAS G12V [1]) of 9.00, a pIC50 [2] of 8.70 and a pKd (KRAS G12D [5]) of 9.00. For the same compound, the pIC50 [7] was 7.77, the pKd (NRAS Wild Type) was under 5.00 and the pKd (KRAS G12C [8]) was 9.00. For the same compound, the pKd (KRAS Wild Type [9]) was 8.70, the pKd (HRAS Wild Type) was under 5.00 and the pIC50 [11] was 7.80.
`Fc1c(-c2c(C3CC3)c(Cl)cc3[nH]ncc23)nc2c3c(nc(OC[C@@]45CCCN4CC(=C4COC4)C5)nc13)N1CCCOC[C@H]1CO2` [Example 41, (8aS)-5-(6-chloro-5-cyclopropyl-1H-indazol-4-yl)-4-fluoro-2-{[(7aS)-2-(oxetan-3-ylidene)tetrahydro-1H-pyrrolizin-7a(5H)-yl]methoxy}-8a,9,12,13-tetrahydro-8H,11H-7,10-dioxa-1,3,6,13a-tetraazanaphtho[1,8-ab]heptalene] gave a pKd (KRAS G12V [1]) of 8.40, a pIC50 [2] of 8.30 and a pKd (KRAS G12D [5]) of 8.70. The pIC50 [7] was 7.60, the pKd (NRAS Wild Type) was under 5.00 and the pKd (KRAS G12C [8]) was 8.40. It also gave a pKd (KRAS Wild Type [9]) of 8.30, a pKd (HRAS Wild Type) of under 5.00 and a pIC50 [11] of 7.44.
`C=C1CN2CCC[C@@]2(COc2nc3c4c(nc(-c5c(C6CC6)c(Cl)cc6[nH]nc(Cl)c56)c(F)c4n2)OC[C@@H]2COCCCN32)C1` [Example 46, (8aS)-5-(3,6-dichloro-5-cyclopropyl-1H-indazol-4-yl)-4-fluoro-2-{[(7aS)-2-methylidenetetrahydro-1H-pyrrolizin-7a(5H)-yl]methoxy}-8a,9,12,13-tetrahydro-8H,11H-7,10-dioxa-1,3,6,13a-tetraazanaphtho[1,8-ab]heptalene] showed a pKd (KRAS G12V [1]) of 8.40, a pIC50 [2] of 8.30 and a pKd (KRAS G12D [5]) of 8.52. The pIC50 [7] was 7.82, the pKd (NRAS Wild Type) was under 5.00 and the pKd (KRAS G12C [8]) was 8.52. For the same compound, the pKd (KRAS Wild Type [9]) was 8.40, the pKd (HRAS Wild Type) was under 5.00 and the pIC50 [11] was 7.35.
`C=C1CN2CCC[C@@]2(COc2nc3c4c(nc(-c5c6c(cc7[nH]ncc57)CCC[C@H]6C)c(F)c4n2)OC[C@@H]2COCCCN32)C1` [Example 29, (8aS)-4-fluoro-2-{[(7aS)-2-methylidenetetrahydro-1H-pyrrolizin-7a(5H)-yl]methoxy}-5-[(5R)-5-methyl-5,6,7,8-tetrahydro-1H-benzo[f]indazol-4-yl]-8a,9,12,13-tetrahydro-8H,11H-7,10-dioxa-1,3,6,13a-tetraazanaphtho[1,8-ab]heptalene] gave a pKd (KRAS G12V [1]) of 8.70, a pIC50 [2] of over 9.00 and a pKd (KRAS G12D [5]) of 9.00. The pIC50 [7] was 8.40, the pKd (NRAS Wild Type) was under 5.00 and the pKd (KRAS G12C [8]) was 9.00. The pKd (KRAS Wild Type [9]) was 9.00, the pKd (HRAS Wild Type) was under 5.00 and the pIC50 [11] was 8.10.
